Test results as given in US20230022796A1 (Merck Patent GmbH, priority 2019, published 2023).

Key:
Format in all cases: cell-based, Chinese hamster
[1] = system: CHO cell line producing mAb1; experiment: Glycosylation profile (UPLC-MS of released glycans) of mAb1 from fed-batch; settings: for reduction of the fucosylation compared to the control: mAb1, same concentration of both additives
Protocol: (§1) Glycosylation patterns were analyzed by ultra-performance liquid chromatography coupled to a mass spectrometer (UPLC-MS). The purified antibody was denaturated and the glycans were released from the antibody by digestion with peptide N-glycosidase F (PNGase F) followed by labeling the glycans with the GlycoWorks™ RapiFluor-MS™ N-Glycan Kit according to the manufacturer protocol. For the analysis, an UPLC glycan column (2.1×150 mm) that separated the glycans according to their […] was used. The chromatography was performed at 45° C. using 50 mM ammonium formate (A), pH 4.4 solution and an acetonitrile (B) gradient. In detail, at the beginning the ratio of A:B was 20:80 (0 min) and changed to 27:73 at 3 min and 37:63 at 35 min at a flow rate of 0.5 ml/min. From 36.5 min to 39.5 min only A was used as mobile phase and the flow rate was reduced to 0.2 ml/min. Subsequently, the ratio was changed to 20% A:80% B and the flowrate was increased to 0.5 ml/min at 43.1 min until the end of the process at 55 min. The detection was performed by a fluorescence detector with an excitation wavelength of 265 nm and an emission wavelength of 425 nm. The identification of the glycan structures was performed by MS using positive electro spray ionization (ESI), which was calibrated every 30 s with a standard.
(§2) Four different clones of Chinese hamster ovary (CHO) cells expressing three different monoclonal antibodies (mAb) and a fusion protein were tested. Cells were cultivated in spin tubes between 14 and 20 days at 37° C., 5% CO2, and 80% humidity. As starting cell density, 3×10^5 cells/mL in 30 mL Cellvento®4CHO media (pH 7.0±0.1) was used for clone 1 and 2 producing mAb1 and mAb2, respectively (Cellvento® Platform). Cells were cultivated at an agitation of 320 rpm and were fed on day 3, 5, 10, 12 and 14 with 3% volume of Cellvento® 4Feed (v/v) and on day 7 with 6% (v/v) of the feed. Clone 3 and 4 producing mAb3 and a fusion protein were inoculated at the same cell density in 30 mL Ex-Cell® Advanced Media (pH 7.2±0.1) while agitation was set to 230 rpm (Ex-Cell® Platform). Clones 3 and 4 were fed with […] Advanced Feed (v/v) on day 3, 5, 7, 10, 12, 14 and 17. […] The pH of all Cellvento® feeds was adjusted to 7.0±0.1 and Ex-Cell® Feeds were adjusted to 8.5±0.1. The glucose level was maintained above 4 g/L by adding a specific amount of a 400 g/L glucose stock solution on demand to up to 6 g/L during the week and up to 13 g/L over the weekend. Glucose and titer were detected in the supernatant with the bioprocess analyzer CEDEX Bio HT (Roche, Mannheim, Germany).
(§3) To investigate the glycosylation profile during the fed-batch experiment samples were centrifugated and antibodies and Fc-fusion proteins were purified from the cell culture supernatant using protein A PhyTips® (PhyNexus Inc, San Jose, Calif.). Glycosylation patterns were analyzed as described by ultra-performance liquid chromatography coupled to a mass spectrometer (UPLC-MS) using the GlycoWorks™ RapiFluor-MS™ N-Glycan Kit.
(§4) Glycosylation profile on day 12 was visualized since harvest of recombinant produced proteins on day 12 is common. Quantification of the glycans was obtained using the relative peak area of the fluorescence signal. Almost all peaks were assigned to glycan structures according to their mass. Unknown glycan structures and signals without mass detection were summarized as unknown species (not shown). Four different clones of Chinese hamster ovary (CHO) cells expressing three different monoclonal antibodies (mAb) and a fusion protein were tested. […] The known positive control achieved a […] level on day 12 by increasing the afucosylation to 78%. The same amount of afucosylation compared to the known fucose-analogue acetylated 2F-Fucose was only achieved by clone 3 expressing mAb3 leading to about […] on day 12 (FIG. 8 C). […]

[2] = system: CHO cell line producing mAb3; experiment: Glycosylation profile (UPLC-MS of released glycans) of mAb3 from fed-batch
Protocol: as §1, §2, §3, §4

[3] = system: CHO cell line producing a fusion protein; experiment: Glycosylation profile (UPLC-MS of released glycans) of fusion protein from fed-batch; settings: 400 μM additive, day 12
Protocol: as §1, §2, §3
Glycosylation profile on day 12 was visualized since harvest of recombinant produced proteins on day 12 is common. Quantification of the glycans was obtained using the relative peak area of the fluorescence signal. Almost all peaks were assigned to glycan structures according to their mass. Unknown glycan structures and signals without mass detection were summarized as unknown species (not shown). Four different clones of Chinese hamster ovary (CHO) cells expressing three different monoclonal antibodies (mAb) and a fusion protein were tested. […] The known positive control achieved a 14% fucosylation level on day 12 by increasing the afucosylation to 78%. The same amount of afucosylation compared to the known fucose-analogue acetylated 2F-Fucose was only achieved by clone 3 expressing mAb3 leading to about 34% afucosylation on day 12 (FIG. 8 C).

[4] = mAb3, 400 μM additive, day 12, listed as ThioFuc
[5] = mAb3, 800 μM additive, day 12, listed as ThioFuc

C[C@@H]1SC(O)[C@@H](O)[C@H](O)[C@@H]1O (stereo partly drawn)
core-fucosylated glycans ([1]; mAb1, 400 μM additive, day 12): about 26%
reduction of the fucosylation compared to the control ([1]; day 7): 64%
reduction of the fucosylation compared to the control ([1]; day 10): 68%
reduction of the fucosylation compared to the control ([1]; day 12): 67%
% Afucosylated ([2]; mAb3, 50 μM additive, day 5): 17.7%
% Fucosylated ([2]; mAb3, 50 μM additive, day 5): 81.4%
% fucose analogue (incorporated) ([2]; mAb3, 50 μM additive, day 5): 0.38%
% Afucosylated ([2]; mAb3, 50 μM additive, day 12): 16.0%
% Fucosylated ([2]; mAb3, 50 μM additive, day 12): 72.5%
% fucose analogue (incorporated) ([2]; mAb3, 50 μM additive, day 12): ~11%
% fucose analogue (incorporated) ([2]; mAb3, 50 μM additive, day 12, listed as ThioFuc): 10.7%
% Afucosylated ([2]; mAb3, 50 μM additive, day 14): 16.1%
% Fucosylated ([2]; mAb3, 50 μM additive, day 14): 69.9%
% fucose analogue (incorporated) ([2]; mAb3, 50 μM additive, day 14): 13.6%
% Afucosylated ([2]; mAb3, 200 μM additive, day 5): 22.1%
% Fucosylated ([2]; mAb3, 200 μM additive, day 5): 62.9%
% fucose analogue (incorporated) ([2]; mAb3, 200 μM additive, day 5): 14.5%
% Afucosylated ([2]; mAb3, 200 μM additive, day 12): 30.1%
% Fucosylated ([2]; mAb3, 200 μM additive, day 12): 33.3%
% fucose analogue (incorporated) ([2]; mAb3, 200 μM additive, day 12): ~36%
% fucose analogue (incorporated) ([2]; mAb3, 200 μM additive, day 12, listed as ThioFuc): 35.9%
% Afucosylated ([2]; mAb3, 200 μM additive, day 14): 32.1%
% Fucosylated ([2]; mAb3, 200 μM additive, day 14): 28.6%
% fucose analogue (incorporated) ([2]; mAb3, 200 μM additive, day 14): 39.1%
% Afucosylated ([2]; mAb3, 400 μM additive, day 5): 28.7%
% Fucosylated ([2]; mAb3, 400 μM additive, day 5): about 48%
% fucose analogue (incorporated) ([2]; mAb3, 400 μM additive, day 5): 26.5%
% Fucosylated ([2]; mAb3, 400 μM additive, day 5, listed as ThioFuc): 46.4%
fucosylation level ([2]; mAb3, 400 μM additive, day 7): about 34%
fucosylation level ([2]; mAb3, 400 μM additive, day 10): ~25%
% Fucosylated ([2]; mAb3, 400 μM additive, day 12): 21%
% Afucosylated [2, 4]: 34.8%
% Fucosylated [2, 4]: 20.9%
% fucose analogue (incorporated) [2, 4]: 44.1%
% Afucosylated ([2]; mAb3, 400 μM additive, day 14): 36.0%
% Fucosylated ([2]; mAb3, 400 μM additive, day 14): ~18%
% fucose analogue (incorporated) ([2]; mAb3, 400 μM additive, day 14): 46.2%
% Fucosylated ([2]; mAb3, 400 μM additive, day 14, listed as ThioFuc): 17.7%
% Afucosylated ([2]; mAb3, 800 μM additive, day 5): 32.3%
% Fucosylated ([2]; mAb3, 800 μM additive, day 5): 40.4%
% fucose analogue (incorporated) ([2]; mAb3, 800 μM additive, day 5): 31.7%
% Afucosylated ([2]; mAb3, 800 μM additive, day 12): about 36%
% Fucosylated ([2]; mAb3, 800 μM additive, day 12): about 15%
% fucose analogue (incorporated) ([2]; mAb3, 800 μM additive, day 12): about 48%
reduction of fucosylation compared to the control ([2]; mAb3, 800 μM additive, day 12): about 75%
% Afucosylated [2, 5]: 36.4%
% Fucosylated [2, 5]: 15.4%
% fucose analogue (incorporated) [2, 5]: 47.8%
% Afucosylated ([2]; mAb3, 800 μM additive, day 14): 38.0%
% Fucosylated ([2]; mAb3, 800 μM additive, day 14): 12.5%
% fucose analogue (incorporated) ([2]; mAb3, 800 μM additive, day 14): 49.3%
afucosylation [3]: 52%
incorporation of fucose analogue (% of the glycans) [3]: 39%
reduction of core-fucosylation compared to the control [3]: about 63%
